Each structure is given as a SMILES string.

This assay relates to λ phage DNA. The assay is described as follows: Zymo Quick-DNA/RNA MagBead extraction with air dry replaced by TPW, LAMP. The format is biochemical. Conditions: 10× dilution of eluent into LAMP. As to the method:
LAMP reactions contained the following concentrations of reagents: 1× Isothermal Amplification Buffer (20 mM Tris-HCl pH 8.8, 10 mM (NH4)2SO4, 50 mM KCl, 5 mM MgSO4, 0.1% Tween-20, B0537S, NEB, Ipswich, Mass., USA), an additional 2 mM MgSO4 (B1003S, NEB), 1.4 mM deoxynucleotide mix (N0447L or N0446S, NEB), […] Invitrogen Syto-9 (S34854, Thermo Fisher Scientific), […] Invitrogen bovine serum albumin (15561020, Thermo Fisher Scientific), 320 U/mL WarmStart Bst 2.0 (M0538L, NEB), and were supplemented with nuclease-free water (not DEPC-Treated, 4387936, Thermo Fisher Scientific) up to 10 μL. LAMP primers (Integrated DNA Technologies (IDT), Coralville, Iowa, USA) were designed, ordered, and added at NEB's recommended concentrations of […] FIP/BIP, 0.2μM F3/B3, and […] LoopF/B.
Each 96-well plate was sealed and briefly spun. Heating and real-time imaging were performed on the Bio-Rad CFX-96 Touch Real-Time PCR Detection System (1855195, Bio-Rad). Each 96-well plate was cooled to 12° C. for 2 min, held at 68° C. for 47 min with 35-second fluorescence read intervals, and a melt-curve analysis was performed. For the E. coli DNA dilution experiment, the 68° C. step was held for 105 min. Time-to-positive (TTP) was determined when the software's automated baseline corrected fluorescence reached 1000 RFU.
The Zymo Quick-DNA/RNA Viral MagBead (R2140) was tested. […]

As for `CCCCCCCCCCCO` [1-undecanol], the TTP improvement is 0.7 min.

These data come from patent US11866695B2, “Methods and systems and related compositions for mixtures separation with a solid matrix” (CALIFORNIA INSTITUTE OF TECHNOLOGY, priority 2019, dated 2024).
